Consider 17 compounds from patent US20260049071A1, “PROTEIN TYROSINE KINASE INHIBITOR AND MEDICAL USE THEREOF” (BEYANG THERAPEUTICS CO., LTD., priority 2022, published 2026).

A value given as a limit tells only on which side of the number the result lay.

For one data set, the system named is melanin. Kind of data set: Binding capacity of compounds to melanin. It counts as in vitro ADME. Particulars: Sepia officinalis (cuttlefish), melanin suspension (1 mg/mL); 1 mg/mL melanin suspension in PBS pH 7.4, 2 μM compound, 2 h at 37° C.; read-out: Fu % (percentage of free drug, not bound to melanin). From the text: Pigmented eye tissues contain melanin in intracellular melanosomes. Drugs bind to melanin to varying degrees, ranging from non-binding to extensive binding. Therefore, melanin binding is an important feature that affects drug delivery and biodistribution in the eye. The binding capacity of a compound to the melanin must be considered in the development of ophthalmic drugs.
Melanin was derived from the melanin of cuttlefish (Sepia officinalis) and was commercially available from Sigma Aldrich (St Louis, MO).
First, prepare 1 mg/mL melanin suspension with PBS (pH 7.4). As a washing step for the matrix, centrifuge the suspended particles for 5 min at 3000 rpm. Resuspend the resulting particles in a fresh PBS buffer, heat to 37° C. over continuous shaking and incubate it for 1 h. Accurately pipette 2 μL of the test stock solution (0.1 mM) into 98 μL of melanin suspension (1 mg/mL) to achieve a final incubation concentration of 2 μM. Similarly, accurately pipette 2 μL of the stock solution (0.1 mM) to 98 μL of PBS buffer (containing 0.1% BSA) as a blank control sample. Incubate the samples in a shaker (80-90 rpm) for 2 h at 37° C. Then, centrifuge the samples at room temperature. Pipette 50 μL of the supernatant and add 50 μL of precipitant (containing an internal standard). After protein precipitation of all the above samples, centrifuge the samples to collect the supernatants, dilute the supernatants with water (if necessary) and inject them for analysis. At the same time, measure the positive controls, including the high-binding compounds Sunitinib and chloroquine and the low-binding compound celecoxib. Establish an LC-MS/MS method for determining compound concentrations, and calibrate the peak area ratio of analyte/internal standard (Analyte/AIS) in the measured sample by the dilution factor to take it as an alternative concentration for the sample for data processing. The binding rate (Fh) of a compound in melanin was calculated as: […]
Ctest was the concentration of the compound in the melanin-incubated sample or the peak area ratio of the test compound to the internal standard. Ccontrol was the concentration of the compound in the blank control sample or the peak area ratio of the test compound to the internal standard. Percentage of free drug (Fu %)=100−Fb The binding rates of the compounds of the present invention to melanin are shown in the table below: […]

The target of a further data set is FLT1 (VEGFR1) (Homo sapiens (Human), UniProt P17948). The data set can be described thus: Kinase inhibition, Mobility Shift Assay (VEGFR1). The format is biochemical. As to the method: (§1) This assay directly monitored the ability of compounds to inhibit kinase phosphorylation by measuring non-phosphorylated and phosphorylated substrates in kinase reactions by using Mobility Shift Assays/IMAP™ analysis.
FLT1 (VEGFR1), sequence (P17948 27-1338): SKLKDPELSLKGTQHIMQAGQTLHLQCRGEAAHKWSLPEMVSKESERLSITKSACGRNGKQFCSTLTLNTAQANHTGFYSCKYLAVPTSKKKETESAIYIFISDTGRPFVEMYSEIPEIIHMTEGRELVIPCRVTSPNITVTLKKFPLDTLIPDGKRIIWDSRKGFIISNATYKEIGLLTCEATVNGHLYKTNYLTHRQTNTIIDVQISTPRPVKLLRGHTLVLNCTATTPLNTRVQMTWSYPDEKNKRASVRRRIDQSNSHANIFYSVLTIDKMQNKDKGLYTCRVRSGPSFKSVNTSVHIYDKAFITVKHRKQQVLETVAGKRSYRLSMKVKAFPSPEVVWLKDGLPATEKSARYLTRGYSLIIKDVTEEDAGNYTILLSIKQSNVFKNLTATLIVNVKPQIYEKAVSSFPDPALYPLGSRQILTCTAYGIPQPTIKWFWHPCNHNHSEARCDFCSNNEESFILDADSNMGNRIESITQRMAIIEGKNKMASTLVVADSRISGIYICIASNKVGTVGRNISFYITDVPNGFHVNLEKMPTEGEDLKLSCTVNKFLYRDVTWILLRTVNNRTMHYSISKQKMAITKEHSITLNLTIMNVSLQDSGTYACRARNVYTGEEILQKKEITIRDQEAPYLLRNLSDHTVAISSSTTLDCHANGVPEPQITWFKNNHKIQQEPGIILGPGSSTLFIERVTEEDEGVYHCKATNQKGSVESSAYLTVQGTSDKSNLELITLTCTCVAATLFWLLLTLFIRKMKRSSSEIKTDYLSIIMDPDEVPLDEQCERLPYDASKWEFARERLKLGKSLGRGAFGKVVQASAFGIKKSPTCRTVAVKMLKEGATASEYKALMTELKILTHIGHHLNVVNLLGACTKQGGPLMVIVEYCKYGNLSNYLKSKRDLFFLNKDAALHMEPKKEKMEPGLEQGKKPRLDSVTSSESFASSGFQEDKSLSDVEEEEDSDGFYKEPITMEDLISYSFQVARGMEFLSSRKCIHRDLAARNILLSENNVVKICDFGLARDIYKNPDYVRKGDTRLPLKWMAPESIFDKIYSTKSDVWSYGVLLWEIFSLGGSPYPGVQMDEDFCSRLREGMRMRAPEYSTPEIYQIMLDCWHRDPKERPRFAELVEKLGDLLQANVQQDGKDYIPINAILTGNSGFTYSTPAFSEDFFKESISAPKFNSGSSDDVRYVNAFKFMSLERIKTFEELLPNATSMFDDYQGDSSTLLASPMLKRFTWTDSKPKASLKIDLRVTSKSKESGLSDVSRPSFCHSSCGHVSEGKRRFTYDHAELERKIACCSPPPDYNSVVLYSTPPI
(§2) Add the kinase and DTT to 1× kinase buffer to form a 2.5× kinase solution; transfer 10 μL of 2.5× kinase solution to a 384-well reaction plate and add 1× kinase buffer to negative control wells. Incubate the plate for 10 min at room temperature; add FAM-labeled peptides, MgCl2, ATP and other reagents to 1× kinase buffer to form a 2.5× substrate solution; transfer 10 μL of the above 2.5× substrate solution to the 384-well reaction plate; incubate the plate at 28° C. for different times, and add 25 μL of stop solution to the 384-well reaction plate to stop the reaction. Read the conversion ratio data on CaliperEZ Reader II. Convert conversion rates into inhibition ratio data.
(§3) “Min” indicates the readout of the control well without the addition of kinase; and “Max” indicates the readout of the control well with the addition of DMSO. Fit IC50 values with XLFit excel add-in version 5.4.0.8.
(§4) X indicates the log value of compound concentration, and Y indicates the inhibition ratio (% inhibition).

In a further data set the target is EGFR (Homo sapiens (Human), UniProt P00533). Kind of data set: Kinase inhibition, Mobility Shift Assay (EGFR). The format is biochemical. As to the method:
as §1, §2, §3, §4

A further data set deals with KDR (VEGFR2) (Homo sapiens (Human), UniProt P35968). The data set can be described thus: Kinase inhibition, Mobility Shift Assay (VEGFR2). It counts as biochemical. The method, then: as §1, §2, §3, §4
KDR (VEGFR2), sequence (P35968 790-1356): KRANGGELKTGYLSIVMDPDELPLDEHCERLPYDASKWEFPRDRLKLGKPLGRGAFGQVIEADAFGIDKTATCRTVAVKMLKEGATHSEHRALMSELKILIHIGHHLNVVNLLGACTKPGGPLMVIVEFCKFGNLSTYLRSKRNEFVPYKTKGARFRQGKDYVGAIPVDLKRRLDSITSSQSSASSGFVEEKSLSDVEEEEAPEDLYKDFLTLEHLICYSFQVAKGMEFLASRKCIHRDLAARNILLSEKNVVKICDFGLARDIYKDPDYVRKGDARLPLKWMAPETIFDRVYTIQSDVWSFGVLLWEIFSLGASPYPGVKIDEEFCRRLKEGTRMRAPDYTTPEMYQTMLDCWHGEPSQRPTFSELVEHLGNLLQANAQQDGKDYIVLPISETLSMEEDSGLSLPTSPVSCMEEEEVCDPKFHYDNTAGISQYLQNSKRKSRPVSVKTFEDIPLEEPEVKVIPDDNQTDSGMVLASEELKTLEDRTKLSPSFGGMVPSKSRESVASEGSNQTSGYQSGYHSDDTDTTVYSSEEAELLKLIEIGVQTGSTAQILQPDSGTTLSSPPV
The next data set concerns the target FLT4 (VEGFR3) (Homo sapiens (Human), UniProt P35916). The data set can be described thus: Kinase inhibition, Mobility Shift Assay (VEGFR3). The format is biochemical. The method, then: as §1, §2, §3, §4

By IC50 is commonly meant the point on the concentration scale where inhibition reaches its midpoint.

FLT4 (VEGFR3), sequence (P35916 25-1363): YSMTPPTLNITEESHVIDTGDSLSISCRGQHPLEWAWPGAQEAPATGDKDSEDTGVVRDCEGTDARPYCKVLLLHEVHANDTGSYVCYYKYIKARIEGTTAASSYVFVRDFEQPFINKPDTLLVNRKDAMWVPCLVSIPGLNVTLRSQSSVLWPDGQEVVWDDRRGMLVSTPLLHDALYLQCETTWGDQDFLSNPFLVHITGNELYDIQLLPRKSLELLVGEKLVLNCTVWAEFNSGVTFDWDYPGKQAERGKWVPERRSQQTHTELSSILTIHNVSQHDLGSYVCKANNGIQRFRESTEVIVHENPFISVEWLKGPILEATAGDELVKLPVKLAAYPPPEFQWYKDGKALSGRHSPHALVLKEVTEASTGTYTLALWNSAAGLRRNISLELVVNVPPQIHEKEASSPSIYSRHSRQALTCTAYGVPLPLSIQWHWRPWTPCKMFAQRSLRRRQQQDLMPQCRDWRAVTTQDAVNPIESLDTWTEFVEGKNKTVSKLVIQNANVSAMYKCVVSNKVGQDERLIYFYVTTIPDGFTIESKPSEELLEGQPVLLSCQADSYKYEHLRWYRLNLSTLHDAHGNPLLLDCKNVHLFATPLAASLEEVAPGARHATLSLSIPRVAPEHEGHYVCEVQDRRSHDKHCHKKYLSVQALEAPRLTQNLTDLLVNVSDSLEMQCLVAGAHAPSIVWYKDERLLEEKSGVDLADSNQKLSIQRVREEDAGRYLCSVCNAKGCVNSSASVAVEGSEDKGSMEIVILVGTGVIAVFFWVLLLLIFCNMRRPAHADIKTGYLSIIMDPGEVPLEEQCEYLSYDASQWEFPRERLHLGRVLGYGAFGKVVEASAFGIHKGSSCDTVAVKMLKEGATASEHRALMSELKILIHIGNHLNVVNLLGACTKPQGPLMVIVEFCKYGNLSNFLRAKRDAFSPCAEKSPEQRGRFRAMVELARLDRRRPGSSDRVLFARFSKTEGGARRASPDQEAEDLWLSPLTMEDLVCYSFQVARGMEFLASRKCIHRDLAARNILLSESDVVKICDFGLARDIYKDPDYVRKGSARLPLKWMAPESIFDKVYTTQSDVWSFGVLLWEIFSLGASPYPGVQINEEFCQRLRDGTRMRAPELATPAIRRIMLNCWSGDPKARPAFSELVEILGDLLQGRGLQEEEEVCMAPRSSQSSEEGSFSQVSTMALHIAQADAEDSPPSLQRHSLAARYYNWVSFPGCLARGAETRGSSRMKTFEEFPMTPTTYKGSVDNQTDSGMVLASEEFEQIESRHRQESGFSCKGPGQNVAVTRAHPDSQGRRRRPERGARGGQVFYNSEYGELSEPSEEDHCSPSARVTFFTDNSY
EGFR, sequence (P00533 25-1210): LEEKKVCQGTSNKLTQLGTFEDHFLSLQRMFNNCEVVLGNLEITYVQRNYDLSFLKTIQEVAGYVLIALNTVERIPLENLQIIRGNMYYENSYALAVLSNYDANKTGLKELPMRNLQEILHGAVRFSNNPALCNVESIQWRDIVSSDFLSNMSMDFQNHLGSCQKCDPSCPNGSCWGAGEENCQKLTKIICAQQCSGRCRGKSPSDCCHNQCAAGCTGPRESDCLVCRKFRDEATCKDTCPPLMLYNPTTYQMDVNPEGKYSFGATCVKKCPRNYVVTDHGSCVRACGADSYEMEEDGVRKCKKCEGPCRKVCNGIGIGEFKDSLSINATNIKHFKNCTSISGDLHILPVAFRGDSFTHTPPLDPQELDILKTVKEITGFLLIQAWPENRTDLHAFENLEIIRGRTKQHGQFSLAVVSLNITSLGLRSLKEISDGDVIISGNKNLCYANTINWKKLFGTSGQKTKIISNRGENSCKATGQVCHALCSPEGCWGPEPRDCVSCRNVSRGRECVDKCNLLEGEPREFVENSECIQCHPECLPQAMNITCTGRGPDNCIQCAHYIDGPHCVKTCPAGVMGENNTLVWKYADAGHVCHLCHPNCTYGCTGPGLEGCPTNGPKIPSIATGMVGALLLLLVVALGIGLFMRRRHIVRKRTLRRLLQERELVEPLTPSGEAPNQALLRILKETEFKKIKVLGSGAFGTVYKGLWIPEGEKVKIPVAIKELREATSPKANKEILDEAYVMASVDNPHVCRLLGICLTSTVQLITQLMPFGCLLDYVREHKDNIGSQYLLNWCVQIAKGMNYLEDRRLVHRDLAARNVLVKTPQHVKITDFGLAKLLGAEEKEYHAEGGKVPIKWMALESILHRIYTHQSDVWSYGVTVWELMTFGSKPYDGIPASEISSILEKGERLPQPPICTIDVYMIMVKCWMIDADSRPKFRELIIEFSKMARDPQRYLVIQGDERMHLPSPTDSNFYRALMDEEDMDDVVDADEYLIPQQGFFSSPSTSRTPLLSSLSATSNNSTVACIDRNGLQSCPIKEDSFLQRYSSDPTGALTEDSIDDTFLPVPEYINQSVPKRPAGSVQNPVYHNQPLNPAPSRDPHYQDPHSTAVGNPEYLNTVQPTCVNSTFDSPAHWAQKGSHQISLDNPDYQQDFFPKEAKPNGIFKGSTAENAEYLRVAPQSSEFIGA

For the compound `O=C(NC1CC1)c1ccccc1Sc1ccc2c(/C=C/c3cc(CN4CCCC4)ccn3)n[nH]c2c1` [Compound I-115, N-cyclopropyl-2-({3-[(E)-2-{4-[(pyrrolidin-1-yl)methyl]pyridin-2-yl}vinyl]-1H-indazol-6-yl}thio)benzamide], in the data set with melanin, the fraction unbound at 2 h, 2 μM lay within 0.01 to 0.05. Also, the IC50 at FLT1 (VEGFR1) is 1 to 10 nM; at EGFR, 6000 to 60000 nM; on KDR (VEGFR2), 1 to 10 nM; on FLT4 (VEGFR3), 10 to 100 nM.
As for `CNC(=O)c1ccc(F)cc1Sc1ccc2c(/C=C/c3ccc(OCCN4CCCC4)cn3)n[nH]c2c1` [Compound I-35], the fraction unbound at 2 h, 2 μM with melanin is 0.01 to 0.05. Moreover, the IC50 was in the range of 1 to 10 nM at FLT1 (VEGFR1), 6000 to 60000 nM at EGFR, 1 to 10 nM on KDR (VEGFR2) and 1 to 10 nM at FLT4 (VEGFR3).
Take `CNC(=O)c1ccccc1Sc1ccc2c(/C=C/c3cncc(OCCN4CCCC4)c3)n[nH]c2c1` [Compound I-22, N-methyl-2-({3-[(E)-2-{5-[2-(pyrrolidin-1-yl)ethoxy]pyridin-3-yl}vinyl]-1H-indazol-6-yl}thio)benzamide]: the fraction unbound at 2 h, 2 μM with melanin was 0.01 to 0.05. In addition, the IC50 at FLT1 (VEGFR1) was 10 to 100 nM; on EGFR, above 60000 nM; at KDR (VEGFR2) it was 10 to 100 nM; at FLT4 (VEGFR3), 10 to 100 nM.
In the case of `CNC(=O)c1ccccc1Sc1ccc2c(C#Cc3ccc(OCCN4CCCC4)cn3)n[nH]c2c1` [Compound I-16, N-methyl-2-{[3-(2-{5-[2-(pyrrolidin-1-yl)ethoxy]pyridin-2-yl}ethynyl)-1H-indazol-6-yl]thio}benzamide], in the data set on melanin, the fraction unbound at 2 h, 2 μM is below 0.01. The IC50 lay in the range of 1 to 10 nM at FLT1 (VEGFR1), 6000 to 60000 nM at EGFR, 1 to 10 nM on KDR (VEGFR2) and 1 to 10 nM at FLT4 (VEGFR3).
`CNC(=O)c1ccccc1Sc1ccc2c(/C=C/c3cccc(OCCN4CCCC4)c3)n[nH]c2c1` [Compound I-15, N-methyl-2-({3-[(E)-2-{3-[2-(pyrrolidin-1-yl)ethoxy]phenyl}vinyl]-1H-indazol-6-yl}thio)benzamide]: the fraction unbound at 2 h, 2 μM in the data set with melanin was in the range of 0.01 to 0.05. Moreover, the IC50 at FLT1 (VEGFR1) lay in the range of 1 to 10 nM; on EGFR, 6000 to 60000 nM; at KDR (VEGFR2) it was 1 to 10 nM; on FLT4 (VEGFR3) it was 1 to 10 nM.
`O=C(NC1CC1)c1ccccc1Sc1ccc2c(/C=C/c3ccc(OCCN4CCCC4)cn3)n[nH]c2c1` [Compound I-8, N-cyclopropyl-2-({3-[(E)-2-{5-[2-(pyrrolidin-1-yl)ethoxy]pyridin-2-yl}vinyl]-1H-indazol-6-yl}thio)benzamide]: in the data set with melanin, the fraction unbound at 2 h, 2 μM was in the range of 0.01 to 0.05. In addition, the IC50 lay in the range of 1 to 10 nM on FLT1 (VEGFR1), 6000 to 60000 nM at EGFR, 1 to 10 nM on KDR (VEGFR2) and 1 to 10 nM at FLT4 (VEGFR3).
As to `CNC(=O)c1ccccc1Sc1ccc2c(/C=C/c3ccc(OCCC4CCN(C)CC4)cn3)n[nH]c2c1` [Compound I-5, N-methyl-2-({3-[(E)-2-{5-[2-(1-methylpiperidin-4-yl)ethoxy]pyridin-2-yl}vinyl]-1H-indazol-6-yl}thio)benzamide], the fraction unbound at 2 h, 2 μM in the data set on melanin lay in the range of 0.01 to 0.05. Besides, the IC50 on FLT1 (VEGFR1) is at most 1 nM; at EGFR, 6000 to 60000 nM; at KDR (VEGFR2), at most 1 nM; on FLT4 (VEGFR3), at most 1 nM.
`CNC(=O)c1ccccc1Sc1ccc2c(/C=C/c3cnn(CCCN4CCCC4)c3)n[nH]c2c1` [Compound I-32, N-methyl-2-({3-[(E)-2-{1-[3-(pyrrolidin-1-yl)propyl]-1H-pyrazole-4-yl}vinyl]-1H-indazol-6-yl}thio)benzamide]: the fraction unbound at 2 h, 2 μM with melanin was in the range of 0.01 to 0.05. In addition, the half-inhibitory concentration (IC50) lay within 1 to 10 nM on FLT1 (VEGFR1), 6000 to 60000 nM at EGFR, 1 to 10 nM at KDR (VEGFR2) and 1 to 10 nM on FLT4 (VEGFR3).
Consider `CNC(=O)c1ccccc1Sc1ccc2c(NC(=O)NCCN3CCN(C)CC3)n[nH]c2c1` [Compound I-31], for which the fraction unbound at 2 h, 2 μM with melanin lay in the range of 0.01 to 0.05. The IC50 at FLT1 (VEGFR1) was above 100 nM; on EGFR, above 60000 nM; on KDR (VEGFR2) it was above 100 nM; at FLT4 (VEGFR3) it was above 100 nM.
With `CNC(=O)c1ccccc1Sc1ccc2c(/C=C/c3ccnc(OCCN4CCCC4)c3)n[nH]c2c1` [Compound I-18, N-methyl-2-({3-[(E)-2-{2-[2-(pyrrolidin-1-yl)ethoxy]pyridin-4-yl}vinyl]-1H-indazol-6-yl}thio)benzamide], the fraction unbound at 2 h, 2 μM in the data set on melanin was in the range of 0.01 to 0.05. Moreover, the IC50 is 1 to 10 nM at FLT1 (VEGFR1), 6000 to 60000 nM at EGFR, 1 to 10 nM at KDR (VEGFR2) and 1 to 10 nM on FLT4 (VEGFR3).
Consider `O=C(NC1CC1)c1ccccc1Sc1ccc2c(/C=C/c3cccc(CN4CCCC4)n3)n[nH]c2c1` [Compound I-117, N-cyclopropyl-2-({3-[(E)-2-{6-[(pyrrolidin-1-yl)methyl]pyridin-2-yl}vinyl]-1H-indazol-6-yl}thio)benzamide], for which, in the data set with melanin, the fraction unbound at 2 h, 2 μM lay within 0.01 to 0.05. The IC50 on FLT1 (VEGFR1) is 1 to 10 nM; at EGFR it was above 60000 nM; on KDR (VEGFR2), 1 to 10 nM; at FLT4 (VEGFR3), 1 to 10 nM.
For `CNC(=O)c1c(F)cccc1Sc1ccc2c(/C=C/c3ccc(OCCN4CCCC4)cn3)n[nH]c2c1` [Compound I-36, 2-fluoro-N-methyl-6-({3-[(E)-2-{5-[2-(pyrrolidin-1-yl)ethoxy]pyridin-2-yl}vinyl]-1H-indazol-6-yl}thio)benzamide], the fraction unbound at 2 h, 2 μM with melanin was above 0.05. Moreover, the IC50 is above 100 nM at FLT1 (VEGFR1), 6000 to 60000 nM at EGFR, 1 to 10 nM at KDR (VEGFR2) and 1 to 10 nM at FLT4 (VEGFR3).
On to `O=C(NC1CC1)c1cc(F)ccc1Sc1ccc2c(/C=C/c3cc(CCCN4CCCC4)ccn3)n[nH]c2c1` [Compound I-119, N-cyclopropyl-5-fluoro-2-({3-[(E)-2-{4-[3-(pyrrolidin-1-yl)propyl]pyridin-2-yl}vinyl]-1H-indazol-6-yl}thio)benzamide], for which the IC50 on FLT1 (VEGFR1) was 1 to 10 nM; on EGFR, above 60000 nM; on KDR (VEGFR2) it was at most 1 nM; on FLT4 (VEGFR3) it was 10 to 100 nM.
For `O=C(NC1CC1)c1ccccc1Sc1ccc2c(/C=C/c3cccc(CCCN4CCCC4)n3)n[nH]c2c1` [Compound I-121, N-cyclopropyl-2-({3-[(E)-2-{6-[3-(pyrrolidin-1-yl)propyl]pyridin-2-yl}vinyl]-1H-indazol-6-yl}thio)benzamide], the IC50 is 1 to 10 nM on FLT1 (VEGFR1), 6000 to 60000 nM at EGFR, at most 1 nM at KDR (VEGFR2) and at most 1 nM at FLT4 (VEGFR3).
On to `CNC(=O)c1ccccc1Sc1ccn2c(/C=C/c3ccccn3)ncc2c1` [Compound I-27, N-methyl-2-({3-[(E)-2-(pyridin-2-yl)vinyl]imidazo[1,5-a]pyridin-7-yl}thio)benzamide], for which the IC50 at FLT1 (VEGFR1) is above 100 nM; on EGFR, 6000 to 60000 nM; on KDR (VEGFR2) it was above 100 nM; on FLT4 (VEGFR3) it was above 100 nM.
Consider `O=C(NC1CC1)c1ccccc1Sc1ccc2c(/C=C/c3cc(CCCN4CCCC4)ccn3)n[nH]c2c1` [Compound I-120, N-cyclopropyl-2-({3-[(E)-2-{4-[3-(pyrrolidin-1-yl)propyl]pyridin-2-yl}vinyl]-1H-indazol-6-yl}thio)benzamide], for which the IC50 at FLT1 (VEGFR1) is 1 to 10 nM; on EGFR it was above 60000 nM; on KDR (VEGFR2), at most 1 nM; at FLT4 (VEGFR3), 1 to 10 nM.
For `CNC(=O)c1ccccc1Sc1ccc2c(/C=C/c3ccc(OCC4CCN(C)C4)cn3)n[nH]c2c1` (centres unmarked) [Compound I-1, N-methyl-2-({3-[(E)-2-{5-[(1-methylpyrrolidin-3-yl)methoxy]pyridin-2-yl}vinyl]-1H-indazol-6-yl}thio)benzamide], the fraction unbound at 2 h, 2 μM with melanin was above 0.05. Besides, the IC50 at FLT1 (VEGFR1), at KDR (VEGFR2) and at FLT4 (VEGFR3) was at most 1 nM in each case.
